Read-outs that look alike come from different tables or passages of the source.
Columns and labels:
[1] = system: human myeloid leukemia cell lines KBM-3 and KBM-7/B5, as well as the OCI-AML3; assay: In vitro cytotoxicity of busulfan, MTT assay; format: cell-based; settings: compared with Bu dissolved in DMSO (positive control)
Experimental: The cytotoxic potential of the selected preferred solvent systems with and without Bu was determined against the human myeloid leukemia cell lines KBM-3 and KBM-7/B5, as well as the OCI-AML3 (Andersson et al., 1993; Andersson et al., 1987; Andersson et al., 1995; Wang et al., 1991). Briefly, continuously growing cells were exposed to drug, and then pelleted, after which they were resuspended in complete cell culture medium at 2×10^5/mL and aliquoted (20,000/well) in 96-well plates, incubated at 37° C. for 4 days, and analyzed by the MTT assay (Mosmann, 1983). Graphical analyses including calculations of IC50 and charting of survival were done using Prism 4 (GraphPad Software, Inc., San Diego, Calif.). Cells exposed in parallel to solvent system and medium alone served as negative controls, and cells exposed to […] (final concentration 0.08% v/v) served as a positive control for a comparison of cytotoxic action with the DMA-Bu formulation.

[2] = for Solubility / Solubility (mg/mL): room temperature; for Solubility (mg/mL): listed as Bu
[3] = cited from earlier work
[4] = cited from earlier work; for incidence of neurotoxicity, especially serious generalized seizure activity: after Bu-based conditioning therapy
[5] = Parenteral busulfan pharmacology in mice
Experimental: Swiss Webster mice with a body weight of 25-30 g were used for the in vivo pharmacology experiments (Harlan-Sprague-Dawley, Houston, Tex.). The animals were allowed a minimum of 3-4 days after arrival to acclimatize to the new environment and allowed free access to commercial feed and hyperchlorinated, reverse-osmosis purified water prior to and during the experimentation period. The animal-housing facilities meet the requirements of the USDA, NIH, and DHHS.
Busulfan at a dose of 10 mg/kg BW was used as an appropriate and representative single dose that could be administered as a slow IV bolus injection over 3-4 min.
The Bu was formulated in the prototype VE-acetone/PEG vehicle to a stock concentration of about 10 mg/mL and then diluted with D5W to 1 mg/mL and 2 mg/mL (in repeated experiments) so the total dose of 10 mg/kg could be injected in a volume of about 250 μL and 125 μL, respectively, in a tail vein. The Bu concentrations of the final use-formulation were confirmed by HPLC prior to administration.
No anticonvulsant premedication was used in the animals in these experiments to avoid the possible induction of microsomal liver enzymes that could modify Bu metabolism. For the same reason the animals were unanesthetized during the drug injection, only physically restrained.
Blood samples (0.5-1.0 mL) were procured through cardiac puncture under Isoflurane-induced general anesthesia. These samples were drawn in preheparinized tubes at selected time points prior to the drug infusion (“blank”), and from 5 min to 4 hours after drug injection for determination of Bu concentrations. The blood was centrifuged at 1,000×g for 10 min, and plasma was removed and stored at −80° C. until extracted and assayed by HPLC.

[6] = Stability of Bu formulations by HPLC; format: physicochemical; settings: for stability maintained: stock formulation diluted with D5W
Experimental: It was initially important to describe short-term stability of the Bu/acetone/PEG mixture. This was necessary to determine if the vacuum-extraction step could be utilized without undue chemical degradation of Bu. The Bu (5 mg/mL) in acetone/PEG400 (1:2, v/v) was incubated at room temperature and quantified by HPLC after 0, 1, 2, 4, 8 and 24 hours. Second, the inventors confirmed that Bu would be stable in the VE-acetone/PEG/Bu complex. Therefore, to determine long-term stability Bu was dissolved in acetone (10 mg/mL), then mixed with PEG 400 (ratio 1:2, v/v). The acetone was extracted from the mixture under vacuum at room temperature (RT). The VE-acetone/PEG400/Bu was stored either at room temperature or 37° C. for 2 months in sealed tubes. Finally, Bu (1 mg/mL) in the final use formulation of VE-acetone/PEG 400/D5W (0:40:60, v/v/v), was incubated at room temperature and analyzed by HPLC at 0, 1, 2, 4, 8 and 15 hours to determine short-term stability. Triplicate samples were quantitatively analyzed with HPLC at all time points after appropriate dilution of the samples in the stability studies.
Bu was dissolved at a concentration of about 10 mg/mL in acetone only or in VE-acetone/PEG (prototype stock solvent vehicle) and incubated at RT (22° C.) and at 37° C. The resulting Bu concentration was measured by HPLC in samples taken immediately after solubilization, then every few hours for 8 hours, and then at gradually increasing time intervals for up to 60 days.

**Q.** What does the source list for `CS(=O)(=O)OCCCCOS(C)(=O)=O` [Busulfan, 1,4-butanediol dimethanesulfonate]?
**A.** cytotoxic activity [1]: retained full cytotoxic activity; Solubility ([2]; Solvent: DMA): 49.2 mg/mL; Solubility (mg/mL) ([2]; Solvent: DMA): more than 15 mg/mL; Solubility ([2]; Solvent: DMSO): 77.9 mg/mL; Solubility (mg/mL) ([2]; Solvent: DMSO): more than 15 mg/mL; concentration of Bu stably bound in PEG alone ([2]; after mixing with PEG and extraction of the acetone): 5000 to 10000 µg/mL; Solubility ([3]; Solvent: Acetone, in literature): ~25 mg/mL; Solubility (mg/mL) ([3]; Solvent: Water (The Merck Index)): Negligible (The Merck Index); incidence of neurotoxicity, especially serious generalized seizure activity ([4]; adults): ≤ 10%; incidence of neurotoxicity, especially serious generalized seizure activity ([4]; children): approximately 7%; EEG abnormalities, patients ([4]; without overt seizure activity): up to 60%; half-life ([5]; Swiss Webster, mouse, plasma, iv, 10 mg/kg): 2.5 to 3.5 h; tolerability of injections ([5]; mice, 10 mg/kg IV, acute 4-hour observation period): well tolerated; hemolysis in vivo (urine samples) ([5]; mice, 10 mg/kg, urine samples up to 4 hours): no sign of hemolysis; Bu plasma concentrations ([5]; mice, IV 10 mg/kg BW): for several hours remained in the cytotoxic range; time stable in solution, stock formulation ([6]; Bu/VE-acetone/PEG stock formulation, approximately 5 mg/mL, RT): ≥ 60 days; time stable, final use-formulation ([6]; VE-acetone/PEG diluted with aqueous diluent to 1 mg/mL, RT): at least 15 hours; stability in DMSO ([6]; in DMSO): rapidly started degrading; time stably dissolved ([6]; in acetone and DMA, RT): at least 7 days; time stable, final clinical use-formulation ([6]; reconstituted with D5W, 0.5 to 2 mg/mL, RT): at least 15 hours; stability maintained ([6]; up to 15 hours at 1 mg/ml): ~100%; stability maintained ([6]; up to 25 hours at 0.5 mg/ml): ~100%

Reference: patent US10028949B2, “Parenteral formulations of lipophilic pharmaceutical agents and methods for preparing and using the same” (priority 2011, dated 2018)
